Values joined by “and” are separate entries in the source; they are usually repeats but may differ in a detail not shown here. Equal values may be shown once. Toxic doses and inconclusive results are not listed. Rule as the data show it: active = T/C of 150% or more; inactive = T/C below 125%.
System: L1210 leukemia ip in BDF1 mice, survival T/C
Assay: NCI In Vivo Anticancer Drug Screen. Data for tumor model L1210 Leukemia (intraperitoneal) in B6D2F1 (BDF1) mice
Conditions: endpoint: mean survival time, higher = longer survival
Procedure, shortened: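 Ratio derived from survival: compound-dosed mice over vehicle-dosed mice, all bearing a transplantable tumor.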

[1] = dose: 50.0 mg/kg/injection, schedule: Q01DX009 (ip), vehicle: Klucel (hydroxypropylcellulose) (HPC)
[2] = dose: 100.0 mg/kg/injection, schedule: Q04DX003 (ip), vehicle: Klucel (hydroxypropylcellulose) (HPC)
[3] = dose: 25.0 mg/kg/injection, schedule: Q01DX009 (ip), vehicle: Klucel (hydroxypropylcellulose) (HPC)
[4] = dose: 100.0 mg/kg/injection, schedule: Q01DX001 (ip), vehicle: carboxymethylcellulose (CMC)
[5] = dose: 200.0 mg/kg/injection, schedule: Q01DX001 (ip), vehicle: carboxymethylcellulose (CMC)
[6] = dose: 400.0 mg/kg/injection, schedule: Q01DX001 (ip), vehicle: carboxymethylcellulose (CMC)
[7] = dose: 50.0 mg/kg/injection, schedule: Q01DX001 (ip), vehicle: carboxymethylcellulose (CMC)
[8] = dose: 100.0 mg/kg/injection, schedule: Q04DX003 (ip), vehicle: saline
[9] = dose: 200.0 mg/kg/injection, schedule: Q04DX003 (ip), vehicle: saline
[10] = dose: 100.0 mg/kg/injection, schedule: Q01DX001 (ip), vehicle: saline
[11] = dose: 200.0 mg/kg/injection, schedule: Q01DX001 (ip), vehicle: saline

Measured: T/C

CCN1C(=O)/C(=C\c2ccccc2)N=C1C
inactive: dose: 12.5 mg/kg/injection, schedule: Q01DX009 (ip), vehicle: DMSO 92 % of control | dose: 25.0 mg/kg/injection, schedule: Q01DX009 (ip), vehicle: DMSO 94 % of control | dose: 50.0 mg/kg/injection, schedule: Q01DX009 (ip), vehicle: DMSO 96 % of control

Cc1ccc(C)c(CN(C)C)c1O
inactive: dose: 6.0 mg/kg/injection, schedule: Q04DX003 (ip), vehicle: Klucel (hydroxypropylcellulose) (HPC) 98 % of control | dose: 12.5 mg/kg/injection, schedule: Q04DX003 (ip), vehicle: Klucel (hydroxypropylcellulose) (HPC) 96 % of control | dose: 25.0 mg/kg/injection, schedule: Q04DX003 (ip), vehicle: Klucel (hydroxypropylcellulose) (HPC) 89 % of control | [1] 97 % of control | dose: 50.0 mg/kg/injection, schedule: Q04DX003 (ip), vehicle: Klucel (hydroxypropylcellulose) (HPC) 107 % of control | dose: 100.0 mg/kg/injection, schedule: Q01DX009 (ip), vehicle: Klucel (hydroxypropylcellulose) (HPC) 89 % of control | [2] 100 % of control and 89 % of control

BrCc1cc2ccccc2cc1CBr
inactive: dose: 12.5 mg/kg/injection, schedule: Q01DX009 (ip), vehicle: Klucel (hydroxypropylcellulose) (HPC) 98 % of control | [3] 96 % of control | dose: 25.0 mg/kg/injection, schedule: Q04DX003 (ip), vehicle: saline with Tween-80 100 % of control | [1] 93 % of control and 107 % of control | dose: 50.0 mg/kg/injection, schedule: Q04DX003 (ip), vehicle: saline with Tween-80 104 % of control | dose: 100.0 mg/kg/injection, schedule: Q04DX003 (ip), vehicle: saline with Tween-80 96 % of control

CCCCSc1nc2ccccc2c(=O)n1-c1ccccc1
inactive: dose: 100.0 mg/kg/injection, schedule: Q01DX001 (ip), vehicle: saline with Tween-80 100 % of control | dose: 200.0 mg/kg/injection, schedule: Q01DX001 (ip), vehicle: saline with Tween-80 103 % of control | dose: 400.0 mg/kg/injection, schedule: Q01DX001 (ip), vehicle: saline with Tween-80 97 % of control

C=C1C(=O)OC2CC(C)C3CC(=O)C(C)=C3C(O)C12 (centres undefined)
inactive: dose: 25.0 mg/kg/injection, schedule: Q01DX009 (ip), vehicle: saline 94 % of control | dose: 50.0 mg/kg/injection, schedule: Q01DX009 (ip), vehicle: saline 98 % of control

COc1nc(SC)nc2[nH]ccc12
inactive: dose: 75.0 mg/kg/injection, schedule: Q01DX001 (ip), vehicle: other 103 % of control | dose: 150.0 mg/kg/injection, schedule: Q01DX001 (ip), vehicle: other 100 % of control | dose: 300.0 mg/kg/injection, schedule: Q01DX001 (ip), vehicle: other 97 % of control

Nc1nc(N)c2[nH]cnc2n1
inactive: dose: 12.5 mg/kg/injection, schedule: Q01DX Z (ip), vehicle: carboxymethylcellulose (CMC) 91 % of control | dose: 17.49 mg/kg/injection, schedule: Q01DX Z (ip), vehicle: carboxymethylcellulose (CMC) 86 % of control | [3] 111 % of control | dose: 25.0 mg/kg/injection, schedule: Q01DX Z (ip), vehicle: carboxymethylcellulose (CMC) 93 % of control | dose: 34.98 mg/kg/injection, schedule: Q01DX Z (ip), vehicle: carboxymethylcellulose (CMC) 92 % of control | dose: 44.0 mg/kg/injection, schedule: Q02DX010 (ip), vehicle: other 100 % of control | [1] 110 % of control | dose: 66.0 mg/kg/injection, schedule: Q02DX010 (ip), vehicle: other 105 % of control | dose: 69.95 mg/kg/injection, schedule: Q01DX Z (ip), vehicle: carboxymethylcellulose (CMC) 95 % of control | [4] 97 % of control | dose: 100.0 mg/kg/injection, schedule: Q01DX Z (ip), vehicle: carboxymethylcellulose (CMC) 91 % of control | dose: 100.0 mg/kg/injection, schedule: Q02DX010 (ip), vehicle: other 116 % of control | dose: 139.9 mg/kg/injection, schedule: Q01DX Z (ip), vehicle: carboxymethylcellulose (CMC) 106 % of control | dose: 150.0 mg/kg/injection, schedule: Q02DX010 (ip), vehicle: other 117 % of control | [5] 90 % of control | dose: 225.0 mg/kg/injection, schedule: Q02DX010 (ip), vehicle: other 60 % of control | [6] 97 % of control

C[N+]1(C2CCC3CCCC2C3=O)CCCC1 (centres undefined)
inactive: dose: 75.0 mg/kg/injection, schedule: Q01DX001 (ip), vehicle: saline 98 % of control | dose: 150.0 mg/kg/injection, schedule: Q01DX001 (ip), vehicle: saline 106 % of control

O=[N+]([O-])c1ccccc1C1OCCO1
inactive: [7] 95 % of control | [4] 93 % of control | [5] 101 % of control | [6] 93 % of control

CN(C)c1ccc2nc3ccc(=O)cc-3sc2c1
inactive: dose: 50.0 mg/kg/injection, schedule: Q04DX002 (ip), vehicle: Klucel (hydroxypropylcellulose) (HPC) 88 % of control | dose: 100.0 mg/kg/injection, schedule: Q04DX002 (ip), vehicle: Klucel (hydroxypropylcellulose) (HPC) 95 % of control | dose: 200.0 mg/kg/injection, schedule: Q04DX002 (ip), vehicle: Klucel (hydroxypropylcellulose) (HPC) 92 % of control | dose: 400.0 mg/kg/injection, schedule: Q04DX002 (ip), vehicle: Klucel (hydroxypropylcellulose) (HPC) 95 % of control

Nc1nc(Br)cs1
inactive: [8] 102 % of control | [9] 102 % of control

COc1ccc(/C=C2\CN(CCC(=O)O)C(=O)C2=O)cc1
inactive: [10] 103 % of control | [8] 98 % of control | [11] 98 % of control | [9] 98 % of control | dose: 400.0 mg/kg/injection, schedule: Q01DX001 (ip), vehicle: saline 98 % of control | dose: 400.0 mg/kg/injection, schedule: Q04DX003 (ip), vehicle: saline 98 % of control

CCCCCCCCCCCC(=O)NC(=S)Nc1cccc(F)c1
inactive: [2] 95 % of control | dose: 200.0 mg/kg/injection, schedule: Q04DX003 (ip), vehicle: Klucel (hydroxypropylcellulose) (HPC) 90 % of control

O=C(CNC(=O)c1ccc(Cl)cc1Cl)N/N=C/c1ccc(Cl)c(Cl)c1
inactive: dose: 25.0 mg/kg/injection, schedule: Q01DX009 (ip), vehicle: saline with Tween-80 95 % of control | dose: 50.0 mg/kg/injection, schedule: Q01DX009 (ip), vehicle: saline with Tween-80 91 % of control | dose: 100.0 mg/kg/injection, schedule: Q01DX009 (ip), vehicle: saline with Tween-80 88 % of control

CC(C(=O)O)N(CC(=O)O)CC(=O)O.[Co+2].[NH-]CC(=O)O (centres undefined)
inactive: dose: 6.25 mg/kg/injection, schedule: Q01DX009 (ip), vehicle: water 106 % of control and 89 % of control | dose: 12.5 mg/kg/injection, schedule: Q01DX009 (ip), vehicle: water 93 % of control and 106 % of control and 124 % of control | dose: 25.0 mg/kg/injection, schedule: Q01DX009 (ip), vehicle: water 102 % of control and 109 % of control | dose: 50.0 mg/kg/injection, schedule: Q01DX009 (ip), vehicle: water 109 % of control and 114 % of control | dose: 100.0 mg/kg/injection, schedule: Q04DX003 (ip), vehicle: water 107 % of control | dose: 200.0 mg/kg/injection, schedule: Q04DX003 (ip), vehicle: water 105 % of control

c1ccc(N=P(c2ccccc2)(c2ccccc2)c2ccccc2)cc1
inactive: [10] 94 % of control | [11] 94 % of control

O=C(O)CCCc1nc2ccccc2c(=O)[nH]1
inactive: dose: 44.0 mg/kg/injection, schedule: Q01DX001 (ip), vehicle: carboxymethylcellulose (CMC) 101 % of control and 103 % of control | [7] 108 % of control | dose: 66.0 mg/kg/injection, schedule: Q01DX001 (ip), vehicle: carboxymethylcellulose (CMC) 98 % of control and 103 % of control | [4] 98 % of control and 100 % of control | dose: 150.0 mg/kg/injection, schedule: Q01DX001 (ip), vehicle: carboxymethylcellulose (CMC) 93 % of control and 100 % of control | [5] 106 % of control | [6] 101 % of control

Source: PubChem BioAssay AID248 (DTP/NCI, 2004)
